Reference: US9248149B2, “Methods for treating a neoplastic disease in a subject using inorganic selenium-containing compounds” (THE BOARD OF TRUSTEES OF THE LELAND STANFORD JUNIOR …, priority 2003, dated 2016)

Columns and labels:
[1] = system: LAPC-4 prostate cancer cells; assay: MTS cell proliferation assay; assay type: cell-based, human; details: 48 hours
Description: (§1) Cell Cultures and Treatments. LAPC-4 prostate cancer cells (provided by Dr. Charles Sawyers, UCLA) were cultured in phenol red free RPMI 1640 (Life Technologies, Rockville, Md.) supplemented with 10% fetal bovine serum (Gemini Bio-Products, Woodland, Calif.) at 37° C. in a humidified atmosphere with 5% CO2.
Cell proliferation assay. Cells were seeded in 96-well plates (10,000 cells/well) and treated with selenite for 48 hours. Cell survival was assayed using the CellTiter 96 AQueous One Solution Cell Proliferation Assay (Promega, Madison, Wis.). The MTS tetrazolium solution was added directly to the wells, incubated at 37° C. for 3 hours, and then the absorbance was read at 490 nm with a 96 well plate reader (Vmax Kinetic Microplate Reader, Molecular Devices, Sunnyvale, Calif.).

[2] = system: LAPC-4 prostate cancer cells; assay: Apoptosis as sub-G1 fraction by FACS of PI-stained cells; assay type: cell-based, human; details: for percentage of sub-G1 cells (apoptosis): 48 hours
Description: as §1
Detection of Apoptosis. Flow cytometry analysis (FACS) analysis of propidium iodide (PI)-stained cells was used to quantify the percentage of apoptotic cells as the fraction of cells with a hypodiploid amount of DNA (Sub-G1). Cells were fixed and permeabilized with 100% ice-cold ethanol at 4° C. overnight. The cells were resuspended in 500 μl of buffer (phosphate buffered saline (PBS), 5 mM EDTA) and incubated with 200 μg/ml RNase A for 30 min at room temperature and then 50 μg/ml PI for 10 min at room temperature. The cell cycle distribution was analyzed using Facstar flow cytometry (Becton-Dickinson, San Jose, Calif.). Cleavage of Caspase-3 as a marker of caspase-mediated apoptosis was also detected by immunoblot analysis (see below).

LAPC-4 cells [3] = assay: GSH-reductase recycling assay, intracellular GSH and GSSG; assay type: cell-based, human; details: 10 μM selenite
Description: Determination of Intracellular GSH and GSSG Content. The determination of intracellular GSH and GSSG content following exposure to selenite was performed using the GSH-reductase recycling assay (Vandeputte et al., Cell Biol Toxicol, 10: 415-421 (1994)). This assay measures the reaction of GSH with 5,5′-dithiobis(2-nitrobenzoic acid) (DTNB). Briefly, cells (floating and adherent) were rinsed in cold stock buffer (143 mM sodium phosphate, 6.3 mM EDTA, pH7.4), and lysed by repeated freeze thawing in 130 μl of 10 mM HCl. Following lysis a 10 μl sample was removed and used for protein determination. Proteins were precipitated on ice for 15 min with 30 μl of 6.5% sulfosalicyclic acid and centrifuged for 15 min at 2000×g and 4° C. The supernatants were collected and stored at −80° C. until assayed. The 96-well plate assay was prepared by mixing 20 μl of sample or known GSH standard, 20 μl of stock buffer, 200 μl of reaction buffer (1 mM 5,5′-dithiobis(2-nitrobenzoic acid (DTNB) and 0.34 mM nicotinamide adenine dinucleotide phosphate (NADPH) in stock buffer), and 40 μl of GSH reductase (8.5 U/ml). The reaction was recorded kinetically at 30-sec intervals for 6 min at a wavelength of 405 nm GSSG was measured following GSH derivatization with 2-vinylpyridine and triethanolamine. GSSG was measured as described above using known GSSG standards. The concentration of GSH and GSSG was expressed as nmol/mg of protein.

[4] = system: normal prostate cells (E-PZ-3); assay: GSH-reductase recycling assay, GSH:GSSG ratio; assay type: cell-based, human; details: 25 μM selenite, 48 hours
Text: (§2) Primary prostate epithelial cell strains from normal prostate (PZ) and prostate cancer (CA) tissue were provided by Dr. Donna Peehl (Stanford University) using well established methods she has previously described (Peehl, Human prostatic epithelial cells. In: Culture of Epithelial Cells, 2nd edition, Freshney, R. I. and Freshney, M. G. (eds.), Wiley-Liss, Inc., N.Y., 171-194 (2002)). Three matched pairs of normal and cancer cell strains were available for study (E-PZ/CA-1, E-PZ/CA-2, and E-PZ/CA-3). Normal cell strains were obtained from a region of the prostate peripheral zone not involved in cancer. E-CA-1, E-CA-2, and E-CA-3 cell strains were derived from prostate carcinomas. Cells were treated at 50-70% confluence.
(§3) Determination of Intracellular GSH and GSSG Content. […] The 96-well plate assay was prepared by mixing 20 μl of sample or known GSH standard, 20 μl of stock buffer, 200 μl of reaction buffer (1 mM 5,5′-dithiobis(2-nitrobenzoic acid (DTNB) and 0.34 mM nicotinamide adenine dinucleotide phosphate (NADPH) in stock buffer), and 40 μl of GSH reductase (8.5 U/ml). The reaction was recorded kinetically at 30-sec intervals for 6 min at a wavelength of 405 nm GSSG was measured following GSH derivatization with 2-vinylpyridine and triethanolamine. GSSG was measured as described above using known GSSG standards. The concentration of GSH and GSSG was expressed as nmol/mg of protein.

[5] = system: prostate cancer cells (E-CA-3); assay: GSH-reductase recycling assay, GSH:GSSG ratio; assay type: cell-based, human; details: 25 μM selenite, 48 hours
Text: as §2, §3

[6] = system: DU 145 prostate cancer cells; assay: GSH-reductase recycling assay, GSH:GSSG ratio; assay type: cell-based; details: 10 μM selenite, basal level 146.4±14.0
Description: DU 145 prostate cancer cells (American Type Culture Collection, Rockville, Md.) were cultured in RPMI 1640 (+phenol red) supplemented with 10% fetal bovine serum. When the cells reached 50% confluence the media was replaced and selenite was added at the noted concentrations.
as §3, with “Content. The determination of intracellular GSH and GSSG content following exposure to selenite was performed using the GSH-reductase recycling assay (Vandeputte et al., Cell Biol Toxicol, 10: 415-421 (1994)). This assay measures the reaction of GSH with 5,5′-dithiobis(2-nitrobenzoic acid) (DTNB).” for “Content.”

LAPC-4 cells [7] = assay: Clonogenic survival assay; assay type: cell-based, human
Description: (§4) Clonogenic Survival Assays. In Examples 1-4 below, LAPC-4 cells were treated with or without selenite for 6 hours prior to receiving 2 Gy of ionizing radiation. In other Examples, LAPC-4 and DU 145 cells were treated with 10 μM selenite for 6 or 12 hours treatment with 2 or 5 Gy of γ-irradiation.
(§5) Following irradiation cells were trypsinized, counted, and seeded in triplicate into 60 mm dishes. At least two dilutions of cells were used for each treatment group. Plated cells were allowed to grow for 14 or 17 days before being stained with 0.25% crystal violet in 75% ethanol. Resulting colonies with greater than 50 cells were scored. The surviving fraction was calculated as the plating efficiency of treated cells divided by the plating efficiency of untreated cells. SF2 is the survival fraction of exponentially growing cells that were irradiated at the clinically relevant dose of 2 Gy. The SF2 enhancement ratio (SF2 ER) is defined here as the SF2 without treatment divided by the SF2 for cells treated with selenite.

DU 145 cells = assay: Clonogenic survival assay; assay type: cell-based; details: for SF2: normalized for killing from selenite alone, radiation alone 0.554; for surviving fraction, selenite alone: assessed at 17 days
Description: as §4, §5

LAPC-4 tumors = assay: Selenite and radiation combination therapy in mice with LAPC-4 tumors; assay type: in vivo

Compound: O=[Se](O)O [selenite, Sodium selenite]
- Cell proliferation ([1]; 10 μM selenite): 53.3 % of control
- Cell proliferation ([1]; 25 μM selenite): 33.4 % of control
- percentage of sub-G1 cells (apoptosis) ([2]; 10 μM selenite): 14.5%
- percentage of sub-G1 cells (apoptosis) ([2]; 25 μM selenite): 26.1%
- decrease of GSH:GSSG ratio (LAPC-4 cells [3]; 6 hours): 88.3%
- GSH:GSSG ratio (LAPC-4 cells [3]; 6 hours, untreated 129.4±13.6): 15.1±2.3
- total GSH level (LAPC-4 cells [3]; 48 hours, basal level 52.1±5.6): 11.8 ± 2.1 nmol/mg
- decrease of GSH:GSSG ratio [4]: 41.1%
- decrease of GSH:GSSG ratio [5]: 65.9%
- GSH:GSSG ratio ([6]; 6 hours): 57.5±13.8
- GSH:GSSG ratio ([6]; 12 hours): 5.7±1.8
- SF2 (LAPC-4 cells [7]; 10 μM selenite 6 hr pre 2 Gy γ-irradiation, normalized for killing from selenite alone, radiation alone 0.244): 0.056
- SF2 ER (LAPC-4 cells [7]; 10 μM selenite 6 hr pre radiation, SF2 without treatment divided by SF2 with selenite): 4.36
- surviving fraction, selenite alone (LAPC-4 cells [7]; 10 μM selenite for 6 hours, no radiation): 0.431±0.021
- SF2 (DU 145 cells; 10 μM selenite 6 hr pre 2 Gy γ-irradiation): 0.343
- SF2 ER (DU 145 cells; 10 μM selenite 6 hr pre radiation): 1.62
- SF2 (DU 145 cells; 10 μM selenite 12 hr pre 2 Gy γ-irradiation): 0.199
- SF2 ER (DU 145 cells; 10 μM selenite 12 hr pre radiation): 2.78
- surviving fraction, selenite alone (DU 145 cells; 10 μM selenite for 6 hours): 0.941
- surviving fraction, selenite alone (DU 145 cells; 10 μM selenite for 12 hours): 0.409
- tolerability (LAPC-4 tumors; selenite treated mice): very well tolerated
- weight loss (LAPC-4 tumors; selenite treated mice compared with local tumor irradiation alone): no significant weight loss

Compound: CCCCS(=N)(=O)CCC(N)C(=O)O (centres unmarked) [BSO, buthionine sulfoximine, reference compound]
- induction of apoptosis ([2]; BSO 500 μM for 72 hrs): did not induce significant apoptosis
